ChEMBL document CHEMBL5154678, “Lysine Stapling Screening Provides Stable and Low Toxic Cationic Antimicrobial Peptides Combating Multidrug-Resistant Bacteria In Vitro and In Vivo” (J Med Chem, 2022)
In brackets after ≈: the same amount, converted by molar mass. Activity calls are given as the source filed them. The rule behind the calls is not given here. Starred links: 1 amine or outer side, 2 acyl side, 3 side chain; linkers in the order of their positions; H or OH if unused. Positions of bridges follow the written chain, without caps; N, C: chain ends. Non-standard residues stand in square brackets, D forms with d. Residues, ends and D or L forms follow the SMILES beside them. X1 = O=C([C@H](CCCCNCC=[*:3])N[*:1])[*:2]

Tests used:
Staphylococcus aureus [1] = assay: Antibacterial activity against Staphylococcus aureus BNCC 186335 assessed as inhibition of bacterial growth incubated for 16 hrs by broth microdilution method; type: functional
Staphylococcus aureus [2] = assay: Antibacterial activity against methicillin-resistant Staphylococcus aureus BNCC 186335 assessed as inhibition of bacterial growth incubated for 4 hrs in presence of 25% plasma by broth microdilution method; type: functional
HEK-293T [3] = assay: Cytotoxicity against human HEK293T cells assessed as cell survival rate at 128 ug/ml incubated for 24 hrs by MTT assay relative to control; type: toxicity, cell-based; conditions: dose 128 µg/ml
Pseudomonas aeruginosa [4] = assay: Antibacterial activity against Pseudomonas aeruginosa BNCC 125486 assessed as inhibition of bacterial growth incubated for 16 hrs by broth microdilution method; type: functional
Erythrocyte = assay: Hemolytic activity against human RBC assessed as concentration required to cause 10% hemolysis; type: toxicity, cell-based
Listeria monocytogenes = assay: Antibacterial activity against Listeria monocytogenes assessed as inhibition of bacterial growth incubated for 16 hrs by broth microdilution method; type: functional
HEK-293T [5] = assay: Cytotoxicity against human HEK293T cells assessed as cell survival rate at 256 ug/ml incubated for 24 hrs by MTT assay; type: toxicity, cell-based; conditions: dose 256 µg/ml
Staphylococcus aureus [6] = assay: Antibacterial activity against methicillin-resistant Staphylococcus aureus assessed as inhibition of bacterial growth incubated for 16 hrs by broth microdilution method; type: functional
Escherichia coli [7] = assay: Antibacterial activity against cephalosporin-resistant Escherichia coli BNCC 133264 assessed as inhibition of bacterial growth incubated for 16 hrs by broth microdilution method; type: functional
Escherichia coli [8] = assay: Antibacterial activity against Escherichia coli BNCC 133264 assessed as inhibition of bacterial growth incubated for 16 hrs by broth microdilution method; type: functional
Pseudomonas aeruginosa [9] = assay: Antibacterial activity against multidrug-resistant Pseudomonas aeruginosa BNCC 125486 assessed as inhibition of bacterial growth incubated for 16 hrs by broth microdilution method; type: functional
Escherichia coli [10] = assay: Antibacterial activity against multidrug-resistant Escherichia coli BNCC 133264 assessed as inhibition of bacterial growth incubated for 16 hrs by broth microdilution method; type: functional
Enterococcus faecium = assay: Antibacterial activity against multidrug-resistant Enterococcus faecium assessed as inhibition of bacterial growth incubated for 16 hrs by broth microdilution method; type: functional
Staphylococcus aureus [11] = assay: Antibacterial activity against methicillin-resistant Staphylococcus aureus BNCC 186335 infected in mouse C57BL/6 assessed as reduction in intracellular bacterial burden in liver at 2 mg/kg ,ip incubated for 24 hrs; type: functional, organism-based
Staphylococcus aureus [12] = assay: Antibacterial activity against methicillin-resistant Staphylococcus aureus BNCC 186335 infected in mouse C57BL/6 assessed as reduction in intracellular bacterial burden in lung at 2 mg/kg ,ip incubated for 24 hrs; type: functional, organism-based
[13] = Stability in human plasma assessed as half life measured after 24 hrs by HPLC analysis; type: ADME, cell-free
Staphylococcus aureus [14] = assay: Antibacterial activity against methicillin-resistant Staphylococcus aureus BNCC 186335 infected in mouse C57BL/6 assessed as reduction in intracellular bacterial burden in spleen at 2 mg/kg ,ip incubated for 24 hrs; type: functional, organism-based
Staphylococcus aureus [15] = assay: Antibacterial activity against multidrug-resistant Staphylococcus aureus BNCC 186335 assessed as inhibition of bacterial growth incubated for 16 hrs by broth microdilution method; type: functional
Cell membrane [16] = assay: Induction of membrane damage in multidrug-resistant Acinetobacter baumannii assessed as concentration of stained cells incubated for 2 hrs by propidium iodide staining based flow cytometer assay; type: subcellular; conditions: dose 16.0 µg/ml, DDE = dose-dependent effect
Klebsiella pneumoniae = assay: Antibacterial activity against multidrug-resistant Klebsiella pneumoniae assessed as inhibition of bacterial growth incubated for 16 hrs by broth microdilution method; type: functional
Staphylococcus aureus [17] = assay: Antibacterial activity against methicillin-resistant Staphylococcus aureus BNCC 186335 infected in mouse C57BL/6 assessed as reduction in intracellular bacterial burden in kidney at 2 mg/kg ,ip incubated for 24 hrs; type: functional, organism-based
Cell membrane [18] = assay: Induction of membrane damage in methicillin-resistant Staphylococcus aureus BNCC 186335 assessed as concentration of stained cells incubated for 2 hrs by propidium iodide staining based flow cytometer assay; type: subcellular
Acinetobacter baumannii = assay: Antibacterial activity against multidrug-resistant Acinetobacter baumannii assessed as inhibition of bacterial growth incubated for 16 hrs by broth microdilution method; type: functional
HEK-293T [19] = assay: Cytotoxicity against human HEK293T cells assessed as cell survival rate at 64 Ug/ml incubated for 24 hrs by MTT assay relative to control; type: toxicity, cell-based; conditions: dose 64 µg/ml
HEK-293T [20] = assay: Cytotoxicity against human HEK293T cells assessed as cell survival rate at 8 to 128 Ug/ml incubated for 24 hrs by MTT assay relative to control; type: toxicity, cell-based; conditions: dose 8-128 µg/ml

Structure (SMILES)	MIC (Staphylococcus aureus [1]) [µg/mL]	MIC (Staphylococcus aureus [2]) [µg/mL]	MIC (Pseudomonas aeruginosa [4]) [µg/mL]	MHC (Erythrocyte) [µg/mL]	MIC (Listeria monocytogenes) [µg/mL]	Activity (HEK-293T [5])	MIC (Staphylococcus aureus [6]) [µg/mL]	MIC (Escherichia coli [7]) [µg/mL]	MIC (Escherichia coli [8]) [µg/mL]	further results
CC(C)[C@H](N)C(=O)N[C@H]1CCCCNCc2ccccc2CNCCCC[C@@H](C(=O)N[C@@H](Cc2ccccc2)C(=O)N[C@@H](Cc2ccccc2)C(=O)N[C@@H](CCCNC(=N)N)C(=O)N[C@@H](CCCCN)C(=O)N[C@@H](Cc2ccccc2)C(=O)N[C@@H](CCCCN)C(=O)N[C@@H](CCCCN)C(=O)N[C@@H](Cc2ccccc2)C(=O)N[C@H](C(N)=O)C(C)C)NC(=O)[C@H](CCCCN)NC(=O)[C@H](Cc2ccccc2)NC(=O)[C@H](CCCNC(=N)N)NC1=O	4 (≈ 1.87 µM)	128	16 (≈ 7.5 µM)	> 128	16 (≈ 7.5 µM)	Toxic	8 (≈ 3.75 µM)	16 (≈ 7.5 µM)	8 (≈ 3.75 µM)	Activity (HEK-293T [3]): Non-Toxic
CC(C)[C@H](N)C(=O)N[C@@H](CCCCN)C(=O)N[C@@H](CCCNC(=N)N)C(=O)N[C@@H](Cc1ccccc1)C(=O)N[C@@H](CCCCN)C(=O)N[C@H]1CCCCNCC#CCNCCCC[C@@H](C(=O)N[C@@H](Cc2ccccc2)C(=O)N[C@@H](CCCCN)C(=O)N[C@@H](CCCCN)C(=O)N[C@@H](Cc2ccccc2)C(=O)N[C@H](C(N)=O)C(C)C)NC(=O)[C@H](CCCNC(=N)N)NC(=O)[C@H](Cc2ccccc2)NC(=O)[C@H](Cc2ccccc2)NC1=O	2 (≈ 0.96 µM)	8	16 (≈ 7.68 µM)	> 128	2 (≈ 0.96 µM)	Toxic	4 (≈ 1.92 µM)	16 (≈ 7.68 µM)	2 (≈ 0.96 µM)	–
CC(C)[C@H](N)C(=O)N[C@H]1CCCCNCC#CCNCCCC[C@@H](C(=O)N[C@@H](Cc2ccccc2)C(=O)N[C@@H](Cc2ccccc2)C(=O)N[C@@H](CCCNC(=N)N)C(=O)N[C@@H](CCCCN)C(=O)N[C@@H](Cc2ccccc2)C(=O)N[C@@H](CCCCN)C(=O)N[C@@H](CCCCN)C(=O)N[C@@H](Cc2ccccc2)C(=O)N[C@H](C(N)=O)C(C)C)NC(=O)[C@H](CCCCN)NC(=O)[C@H](Cc2ccccc2)NC(=O)[C@H](CCCNC(=N)N)NC1=O	4 (≈ 1.92 µM)	128	16 (≈ 7.68 µM)	> 128	8 (≈ 3.84 µM)	Toxic	8 (≈ 3.84 µM)	16 (≈ 7.68 µM)	4 (≈ 1.92 µM)	–
CC(C)[C@H](N)C(=O)N[C@@H](CCCCN)C(=O)N[C@@H](CCCNC(=N)N)C(=O)N[C@@H](Cc1ccccc1)C(=O)N[C@@H](CCCCN)C(=O)N[C@@H](CCCCN)C(=O)N[C@@H](Cc1ccccc1)C(=O)N[C@@H](Cc1ccccc1)C(=O)N[C@@H](CCCNC(=N)N)C(=O)N[C@@H](CCCCN)C(=O)N[C@@H](Cc1ccccc1)C(=O)N[C@@H](CCCCN)C(=O)N[C@@H](CCCCN)C(=O)N[C@@H](Cc1ccccc1)C(=O)N[C@H](C(N)=O)C(C)C (H-VKRFKKFFRKFKKFV-NH2)	4 (≈ 1.97 µM)	–	8 (≈ 3.94 µM)	> 128	16 (≈ 7.87 µM)	Toxic	8 (≈ 3.94 µM)	16 (≈ 7.87 µM)	2 (≈ 0.984 µM)	MIC (Pseudomonas aeruginosa [9]): 4 µg/mL (≈ 1.97 µM); MIC (Escherichia coli [10]): 8 µg/mL (≈ 3.94 µM); MIC (Enterococcus faecium): 8 µg/mL (≈ 3.94 µM); Activity (Staphylococcus aureus [11]): Active; Activity (Staphylococcus aureus [12]): Active; half-life [13]: 2.5 h; Activity (Staphylococcus aureus [14]): Active; MIC (Staphylococcus aureus [15]): 32 µg/mL (≈ 15.7 µM); Activity (Cell membrane [16]): Dde; MIC (Klebsiella pneumoniae): 128 µg/mL (≈ 63 µM); Activity (Staphylococcus aureus [17]): Active; Activity (Cell membrane [18]): 11%; MIC (Acinetobacter baumannii): 4 µg/mL (≈ 1.97 µM)
CC(C)[C@H](N)C(=O)N[C@H]1CCCCNC/C=C/CNCCCC[C@@H](C(=O)N[C@@H](Cc2ccccc2)C(=O)N[C@@H](Cc2ccccc2)C(=O)N[C@@H](CCCNC(=N)N)C(=O)N[C@@H](CCCCN)C(=O)N[C@@H](Cc2ccccc2)C(=O)N[C@@H](CCCCN)C(=O)N[C@@H](CCCCN)C(=O)N[C@@H](Cc2ccccc2)C(=O)N[C@H](C(N)=O)C(C)C)NC(=O)[C@H](CCCCN)NC(=O)[C@H](Cc2ccccc2)NC(=O)[C@H](CCCNC(=N)N)NC1=O (H-V[X1]RFK[X1]FFRKFKKFV-NH2; staple (E) 2-6)	2 (≈ 0.959 µM)	128	8 (≈ 3.84 µM)	> 128	16 (≈ 7.68 µM)	Toxic	4 (≈ 1.92 µM)	16 (≈ 7.68 µM)	4 (≈ 1.92 µM)	Activity (HEK-293T [19]): Toxic
CC(C)C[C@H](NC(=O)[C@H](C)NC(=O)[C@H](CCCCN)NC(=O)[C@H](C)NC(=O)[C@H](C)NC(=O)CNC(=O)[C@H](CCCCN)NC(=O)[C@H](CC(C)C)NC(=O)[C@H](CC(C)C)NC(=O)[C@H](CC(=O)O)NC(=O)[C@H](CCCCN)NC(=O)[C@H](Cc1ccccc1)NC(=O)CN)C(=O)N[C@H](C(=O)N[C@@H](CCCCN)C(=O)N[C@H](C(=O)N[C@H](C(=O)N[C@@H](CC(C)C)C(=O)N[C@@H](Cc1ccccc1)C(N)=O)C(C)C)[C@@H](C)O)C(C)C [Ascaphin-8] (H-GFKDLLKGAAKALVKTVLF-NH2)	2 (≈ 0.991 µM)	–	16 (≈ 7.93 µM)	32	2 (≈ 0.991 µM)	–	16 (≈ 7.93 µM)	32 (≈ 15.9 µM)	4 (≈ 1.98 µM)	Activity (HEK-293T [20]): Toxic
